Measured values: ChEMBL document CHEMBL1139256, “Identification of pharmacophore model, synthesis and biological evaluation of N-phenyl-1-arylamide and N-phenylbenzenesulfonamide derivatives as BACE 1 inhibitors” (Bioorg Med Chem, 2008)
*1 amine or outer side, *2 acyl side, *3 side chain or, on linkers, in order; H or OH if unused. Where a SMILES comes first, the peptide text is derived from it. [ ]: non-standard residue; d: D form. LeuΨ(S-CHOHCH2)Ala = CC(C)C[C@H](N[*:1])[C@@H](O)C[C@@H](C)C(=O)[*:2]

Target: T1, Beta-secretase 1 (Homo sapiens, UniProt P56817)
Details: 2 ug/ml
Description: Inhibition of BACE1 at 2 ug/ml by FRET assay

T1 sequence (P56817 whole entry): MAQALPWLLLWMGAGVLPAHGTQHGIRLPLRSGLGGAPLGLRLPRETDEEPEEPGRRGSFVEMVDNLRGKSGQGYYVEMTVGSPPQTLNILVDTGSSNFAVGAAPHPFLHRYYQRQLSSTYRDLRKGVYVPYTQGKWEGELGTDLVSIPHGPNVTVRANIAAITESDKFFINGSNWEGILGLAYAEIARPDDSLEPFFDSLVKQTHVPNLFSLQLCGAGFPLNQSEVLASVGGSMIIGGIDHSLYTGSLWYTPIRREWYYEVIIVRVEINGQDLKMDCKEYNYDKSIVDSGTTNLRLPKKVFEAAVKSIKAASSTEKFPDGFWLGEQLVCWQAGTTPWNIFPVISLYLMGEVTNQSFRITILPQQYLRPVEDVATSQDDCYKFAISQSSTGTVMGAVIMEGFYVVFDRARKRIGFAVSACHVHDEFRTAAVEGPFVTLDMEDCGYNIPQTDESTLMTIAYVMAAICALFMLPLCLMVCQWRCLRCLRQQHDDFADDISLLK

Compound CC(C)C[C@H](NC(=O)[C@H](CC(N)=O)NC(=O)[C@@H](NC(=O)[C@@H](N)CCC(=O)O)C(C)C)[C@@H](O)C[C@@H](C)C(=O)N[C@@H](C)C(=O)N[C@@H](CCC(=O)O)C(=O)N[C@@H](Cc1ccccc1)C(=O)O (H-EVN[LeuΨ(S-CHOHCH2)Ala]AEF-OH) has an inhibition of 102%.

Target: T1, Beta-secretase 1
Test: Inhibition of BACE1 at 20 ug/ml by FRET assay
Details: not given

Point of comparison: CCOC(=O)C1CCN(CCOc2ccc(Br)cc2NC(=O)Cc2cccc3ccccc23)CC1, inhibition 34.8%. Against it:
- O=C(Cc1cccc2ccccc12)Nc1cc(Br)ccc1OCCNC1CCCCC1 — higher, 64.5%
- O=C(Cc1cccc2ccccc12)Nc1cc(Br)ccc1OCCNCCCO — lower, 15.1%
- CCOC(=O)CN(C)CCOc1ccc(Br)cc1NC(=O)Cc1cccc2ccccc12 — lower, 24.7%
- O=C(CCc1ccccc1)Nc1cc(Br)ccc1OCCN1CCOCC1 — lower, 13.8%
- O=S(=O)(Nc1cc(Br)ccc1OCCN1CCOCC1)c1ccc(Br)cc1 — lower, 14.3%
- O=C(Cc1cccc2ccccc12)Nc1cc(Br)ccc1OCCN1CCOCC1 — higher, 39.4%
- CN(CCOc1ccc(Br)cc1NC(=O)Cc1cccc2ccccc12)Cc1ccccc1 — higher, 41.8%
- NCCCCCCNCCOc1ccc(Br)cc1NC(=O)Cc1cccc2ccccc12 — higher, 83.7%

Target: T1, Beta-secretase 1
Test: Inhibition of BACE1 by FRET assay
Details: not given

Point of comparison: O=C(Cc1cccc2ccccc12)Nc1cc(Br)ccc1OCCNC1CCCCC1, IC50 47.1 µM. Against it:
- NCCCCCCNCCOc1ccc(Br)cc1NC(=O)Cc1cccc2ccccc12 — 2.6-fold lower, 18.3 µM
